Source: patent US12590071B2, “Hydrazone derivative in which terminal amine group is substituted with aryl group or heteroaryl group, and use thereof” (KOREA INSTITUTE OF SCIENCE AND TECHNOLOGY, priority 2018, dated 2026)
pIC50: −log10 of the molar value.

How the values were obtained:
[1] = tested on: Tau-BiFC cells; test: Cytotoxicity (cell survival rate) in tau-BiFC cells; details: group treated with Forskolin alone = 100%
Method: (§1) In order to select new tau protein aggregation-inhibiting materials, tau-BiFC cell models, in which it is easy to observe the formation of tau oligomers in living cells, were used. […] After 48 hours, intracellular nuclei were stained using Hoechst (treatment concentration 2 μg/mL), and BiFC fluorescence intensity was automatically quantified using Operetta (PerkinElmer) to count stained nuclei in each well from the total well plates. […] Further, the degree of cytotoxicity induced by the newly synthesized compound is also based on the 100% survival rate of the group treated with Forskolin alone, and the cytotoxicity value of the compound was calculated by the equation “number of stained nuclei in the group treated with the compound/number of stained nuclei in the group treated with Forskolin x 100”.
(§2) In order to evaluate dose-dependent tau protein aggregation inhibition effects of the compounds selected according to Experimental Example 1, the selected compounds were treated in tau-BiFC cells at concentrations of 0.03 µM, […], 0.3 μM, 1 μM, 3 μM, 10 μM, and 30 μM, respectively, together with Forskolin (treatment concentration 30 µM) as a tau protein aggregation inducing material. After 48 hours, tau protein aggregation reaction and cytotoxicity degree were analyzed by observing cell images. The IC50 and toxicity of the compounds were analyzed by nonlinear regression analysis of prism software (Graph Pad).

[2] = molecular target: T1, tau protein (Homo sapiens, UniProt P10636); test: Tau protein aggregation inhibition in tau-BiFC cell model; format: cell-based; details: tau-BiFC cells treated together with Forskolin, 48 hours
T1 construct: expressed in transfected cells
T1 sequence (P10636 2-441 isoform P10636-8 limits assumed): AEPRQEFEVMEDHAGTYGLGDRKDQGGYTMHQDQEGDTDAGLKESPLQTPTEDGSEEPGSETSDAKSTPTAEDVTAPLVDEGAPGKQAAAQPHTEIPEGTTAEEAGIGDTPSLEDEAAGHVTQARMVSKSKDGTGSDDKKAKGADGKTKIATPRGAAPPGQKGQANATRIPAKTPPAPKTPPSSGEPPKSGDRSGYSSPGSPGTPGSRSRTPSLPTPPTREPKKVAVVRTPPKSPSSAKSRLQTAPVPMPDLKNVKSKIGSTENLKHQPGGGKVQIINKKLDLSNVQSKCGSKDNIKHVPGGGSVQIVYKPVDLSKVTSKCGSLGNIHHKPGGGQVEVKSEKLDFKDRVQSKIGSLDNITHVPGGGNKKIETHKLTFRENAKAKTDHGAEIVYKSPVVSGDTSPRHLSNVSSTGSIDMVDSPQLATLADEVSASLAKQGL
Method: as §1, §2

[3] = Pharmacokinetics in SD rat (plasma PK parameters); format: in vivo
Method: Specifically, an SD rat of 7 to 8 weeks of age (Core Tech, Hana Trading Co., Ltd.) having a body weight of about 250 g to 300 g was purchased, and was managed in a simple breeding room for small animals set to a temperature of 22° C.±2° C., a relative humidity of 50%±5%, a lighting time of 12 hours (light up at 8:00 A.M., turn off at 8:00 P.M.), and an illuminance of 150 lux to 300 lux. During the entire test period, feed was freely provided, RO water was freely provided, and fasting was performed for 16 hours before the oral administration of a drug. After preparing a drug under the conditions shown in Table 5 below, the drug was intravenously injected (IV) or orally administered (PO). 500 µL of transfused blood was collected in a tube containing sodium heparin and centrifuged at 2° C. to 8° C. at 8,000 rpm for 6 minutes to obtain plasma from the blood. The obtained plasma was added to 180 μL of acetonitrile containing internal standard materials, vortexed, and then centrifuged at 15,000 rpm at 4° C. for 5 minutes to obtain a supernatant. The obtained supernatant was analyzed by LC-MS/MS.
Specific PK parameters were acquired using the Phoenix WinNonlin version 6.4 program (Phersight, USA) and wore calculated with a non-compartmental analysis model.

Compound | Cell survival rate (% @ 10 μM) [1] [%] | pIC50 [2] | other results
Cc1nc(-c2ccc(NN=C(C#N)C#N)cc2)ncc1F [Compound 3, (4-(5-fluoro-4-methylpyrimidin-2-yl)phenyl)carbonohydrazonoyl dicyanide] | 66 | 5.62 | –
CCc1ccnc(-c2ccc(NN=C(C#N)C#N)cc2)n1 [Compound 6, (4-(4-ethylpyrimidin-2-yl)phenyl)carbonohydrazonoyl dicyanide] | 147.1 | 6.05 | –
N#CC(C#N)=NNc1ccc(-c2ccccn2)cc1 [Compound 10, (4-(pyridin-2-yl)phenyl)carbonohydrazonoyl dicyanide] | 110.1 | 6.28 | –
N#CC(C#N)=NNc1ccc(-c2cncs2)cc1 [Compound 20, (4-(thiazol-5-yl)phenyl)carbonohydrazonoyl dicyanide] | 90 | 6.22 | –
N#CC(C#N)=NNc1ccc(-c2ncccn2)cc1F [Compound 38, (2-fluoro-4-(pyrimidin-2-yl)phenyl)carbonohydrazonoyl dicyanide] | 88.9 | 6.03 | –
N#CC(C#N)=NNc1ccc(-c2ncccn2)c(F)c1 [Compound 39, (3-fluoro-4-(pyrimidin-2-yl)phenyl)carbonohydrazonoyl dicyanide] | 89.8 | 5.82 | –
Cc1ccnc(-c2ccc(NN=C(C#N)C#N)cc2F)n1 [Compound 40, (3-fluoro-4-(4-methylpyrimidin-2-yl)phenyl)carbonohydrazonoyl dicyanide] | 101.3 | 5.60 | –
COc1cc(-c2ncc(C)cn2)ccc1NN=C(C#N)C#N [Compound 41, (2-methoxy-4-(5-methylpyrimidin-2-yl)phenyl)carbonohydrazonoyl dicyanide] | 126.8 | 5.15 | –
COc1cc(-c2ncccn2)ccc1NN=C(C#N)C#N [Compound 43, (2-methoxy-4-(pyrimidin-2-yl)phenyl)carbonohydrazonoyl dicyanide] | 112.3 | 5.74 | –
N#CC(C#N)=NNc1ccc(-c2cnc3nccn3c2)cc1 [Compound 51, (4-(imidazo[1,2-a]pyrimidin-6-yl)phenyl)carbonohydrazonoyl dicyanide] | 84.2 | 5.13 | –
N#CC(C#N)=NNc1ccc(-c2cnc3ccccc3n2)cc1 [Compound 52, (4-(quinoxalin-2-yl)phenyl)carbonohydrazonoyl dicyanide] | 139.6 | 5.85 | –
N#CC(C#N)=NNc1ccc(-c2ccc3nccn3c2)cc1 [Compound 53, (4-(imidazo[1,2-a]pyridin-6-yl)phenyl)carbonohydrazonoyl dicyanide] | 158.2 | 5.89 | –
Cn1cc2cc(-c3ccc(NN=C(C#N)C#N)cc3)ccc2n1 [Compound 56, (4-(2-methyl-2H-indazol-5-yl)phenyl)carbonohydrazonoyl dicyanide] | – | – | AUCall ([3]; SD rat plasma, IV 2 mg/kg): 17481.28 hr, ng/mL; Cmax ([3]; SD rat plasma, IV 2 mg/kg): 9140 ng/mL; Tmax ([3]; SD rat plasma, IV 2 mg/kg): 0.12 h; clearance ([3]; SD rat plasma, IV 2 mg/kg): 1.85 mL/min/kg; half-life ([3]; SD rat plasma, IV 2 mg/kg): 1.57 h; AUCall ([3]; SD rat plasma, PO 10 mg/kg): 77995.11 hr, ng/mL; Cmax ([3]; SD rat plasma, PO 10 mg/kg): 11400 ng/mL; Tmax ([3]; SD rat plasma, PO 10 mg/kg): 1.5 h; half-life ([3]; SD rat plasma, PO 10 mg/kg): 3.21 h; F ([3]; SD rat, PO 10 mg/kg versus IV): 89.2%
N#CC(C#N)=NNc1ccc(-c2ccc3[nH]ccc3c2)cc1 [Compound 58, (4-(1H-indol-5-yl)phenyl)carbonohydrazonoyl dicyanide] | 113.8 | 5.92 | –
COc1cccc2sc(NN=C(C#N)C#N)nc12 [Compound 59, (4-methoxybenzo[d]thiazol-2-yl)carbonohydrazonoyl dicyanide] | 120.3 | 6.30 | –
N#CC(C#N)=NNc1cnc2ccccc2c1 [Compound 64, quinolin-3-ylcarbonohydrazonoyl dicyanide] | 112.5 | 6.72 | –
Cn1cc2ccc(NN=C(C#N)C#N)cc2n1 [Compound 65, (2-methyl-2H-indazol-6-yl)carbonohydrazonoyl dicyanide] | 103.3 | 7.14 | –
Cn1ncc2cc(NN=C(C#N)C#N)ccc21 [Compound 66, (1-methyl-1H-indazol-5-yl)carbonohydrazonoyl dicyanide] | 96.8 | 7.92 | –
Cn1ccc2cc(NN=C(C#N)C#N)ccc21 [Compound 68, (1-methyl-1H-indol-5-yl)carbonohydrazonoyl dicyanide] | 177.2 | 7.22 | –
N#CC(C#N)=NNc1ccc2[nH]ccc2c1 [Compound 71, (1H-indol-5-yl)carbonohydrazonoyl dicyanide] | 116.4 | 6.07 | –
Cc1n[nH]c2cc(NN=C(C#N)C#N)ccc12 [Compound 73, (3-methyl-1H-indazol-6-yl)carbonohydrazonoyl dicyanide] | 138.5 | 5.96 | –
Cn1ccc2cc(NN=C(C#N)C#N)cnc21 [Compound 76, (1-methyl-1H-pyrrolo[2,3-b]pyridin-5-yl)carbonohydrazonoyl dicyanide] | 195.8 | 7.40 | –
Cc1c[nH]c2ncc(NN=C(C#N)C#N)cc12 [Compound 82, (3-methyl-1H-pyrrolo[2,3-b]pyridin-5-yl)carbonohydrazonoyl dicyanide] | 120.2 | 6.37 | –
N#CC(C#N)=NNc1ccc2nc(NC(=O)c3cncnc3)sc2c1 [Compound 94, (2-(pyrimidine-5-carboxamido)benzo[d]thiazol-6-yl)carbonohydrazonoyl dicyanide] | 95.3 | 5.57 | –
Cc1ncc(C(=O)Nc2nc3ccc(NN=C(C#N)C#N)cc3s2)cn1 [Compound 95, (2-(2-methylpyrimidine-5-carboxamido)benzo[d]thiazol-6-yl)carbonohydrazonoyl dicyanide] | 100.8 | 6.10 | –
Cc1ncncc1C(=O)Nc1nc2ccc(NN=C(C#N)C#N)cc2s1 [Compound 96, (2-(4-methylpyrimidine-5-carboxamido)benzo[d]thiazol-6-yl)carbonohydrazonoyl dicyanide] | 106.1 | 6.40 | –
C#Cc1cnc(-c2ccc(NN=C(C#N)C#N)cc2)nc1 [Compound 149, (4-(5-ethynylpyrimidin-2-yl)phenyl)carbohydrazonoyl dicyanide] | 113.9 | 7.00 | –
(2-(pyrazine-2-carboxamido)benzo[d]thiazol-5-yl)carbonohydrazonoyl dicyanide [Compound 99] | 113.1 | 7.00 | –
